# Measured values taken from US6869913B1, “Pyridazin-3-one derivatives, their use and intermediates for their production” (Sumitomo Chemical Company, Limited, priority 1995, dated 2005).
# Experiments:
# Assay type in all cases: in vivo
# [1] = tested on: entireleaf morningglory (Ipomoea hederacea var. integriuscula); experiment: Test Example 1: foliar treatment on upland fields; settings: 500 g/ha active ingredient; foliar spray; examined 19 days after application
# Procedure: (§1) Cylindrical plastic pots of 10 cm in diameter and 10 cm in depth were filled with soil, in which the seeds of […] (Ipomoea hederacea var. integriuscula) and velvetleaf (Abutilon theophrash) were sowed, and the test plants were grown in a greenhouse for 19 days. Each of the test compounds listed below was formulated into an emulsifiable concentrate according to Formulation Example 2, which was diluted with water containing a spreading agent to a prescribed concentration. The dilution was uniformly sprayed over the foliage of the test plants with a sprayer at a volume of 1000 liters per hectare. After the application, the test plants were grown in the greenhouse for 19 days, and the herbicidal activity was examined.
# [2] = tested on: velvetleaf (Abutilon theophrash); experiment: Test Example 1: foliar treatment on upland fields; settings: 500 g/ha active ingredient; foliar spray; examined 19 days after application
# Procedure: as §1
# [3] = tested on: barnyardgrass (Echinochloa crus-galli); experiment: Test Example 2: foliar treatment on upland fields; set-up: key: rating; 4–5 = excellent activity, 3 or lower = insufficient; settings: 32 g/ha active ingredient; foliar spray; examined 19 days after application
# Source text: (§2) The herbicidal activity is excellent when rated at “4” or “5” but insufficient when rated at “3” or lower. The phytotoxicity is no problematic on practical use when rated at “0” or “1” but not allowed when rated at “2” or higher.
# (§3) Cylindrical plastic pots of 10 cm in diameter and 10 cm in depth were filled with soil, in which the seeds of barnyardgrass (Echinochloa crus-galli), entireleaf morningglory (Ipomoea hederacea var. integriuscula) and velvetleaf (Abutilon theophrash) were sowed, and the test plants were grown in a greenhouse for 19 days. Each of the test compounds listed below was formulated into an emulsifiable concentrate according to Formulation Example 2, which was diluted with water containing a spreading agent to a prescribed concentration. The dilution was uniformly sprayed over the foliage of the test plants with a sprayer at a volume of 1000 liters per hectare. After the application, the test plants were grown in the greenhouse for 19 days, and the herbicidal activity was examined.
# [4] = tested on: entireleaf morningglory (Ipomoea hederacea var. integriuscula); experiment: Test Example 2: foliar treatment on upland fields; set-up: key: rating; 4–5 = excellent activity, 3 or lower = insufficient; settings: 32 g/ha active ingredient; foliar spray; examined 19 days after application
# Source text: as §2, §3
# [5] = tested on: velvetleaf (Abutilon theophrash); experiment: Test Example 2: foliar treatment on upland fields; set-up: key: rating; 4–5 = excellent activity, 3 or lower = insufficient; settings: 32 g/ha active ingredient; foliar spray; examined 19 days after application
# Source text: as §2, §3
# [6] = tested on: entireleaf morningglory (Ipomoea hederacea var. integriuscula); experiment: Test Example 3: soil surface treatment on upland fields; settings: 500 g/ha active ingredient; soil surface spray; examined after 19 days
# Procedure: (§4) Cylindrical plastic pots of 10 cm in diameter and […] in depth were filled with soil, in which the seeds of […] (Ipomoea hederacea var. integriuscula) and velvetleaf (Abutilon theophrash) were sowed. Each of the test compounds listed below was formulated into an emulsifiable concentrate according to Formulation Example 2, which was diluted with water to a prescribed concentration. The dilution was uniformly sprayed over the soil surface in the pots with a sprayer at a volume of 1000 liters per hectare. After the application, the test plants were grown in a greenhouse for 19 days, and the herbicidal activity was examined.
# [7] = tested on: velvetleaf (Abutilon theophrash); experiment: as above; settings: 500 g/ha active ingredient; soil surface spray; examined after 19 days
# Procedure: as §4
# [8] = tested on: barnyardgrass (Echinochloa oryzicola); experiment: Test Example 4: flooding treatment on paddy fields; settings: application amount of active ingredient 250 g/ha, examined 19 days after application, index 0 to 5
# Procedure: Cylindrical plastic pots of 9 cm in diameter and 11 cm in depth were filled with soil, in which the seeds of barnyardgrass (Echinochloa oryzicola) were sowed. These pots were flooded to form a paddy field, and the test plants were grown in a greenhouse for 7 days. Each of the test compounds listed below was formulated into an emulsifiable concentrate according to Formulation Example 2, which was diluted with water to a prescribed concentration. The dilution was applied to the water surface in the pots at a volume of 50 liters per hectare. After the application, the test plants were grown in the greenhouse for 19 days, and the herbicidal activity was examined.
# [9] = tested on: common cocklebur (Xanthium pensylvanicum); experiment: Test Example 5: foliar treatment on upland fields; settings: 63 g/ha active ingredient; foliar spray; 18 days after application
# Source text: as §2
# (§5) Plastic pots of 25×18 cm^2 in area and 7 cm in depth were filled with soil, in which the seeds of soybean (Glycine max), corn (Zea mays), entireleaf morningglory (Ipomoea hederacea var. integriuscula), common cocklebur (Xanthium pensylvanicum), common ragweed (Ambrosia artemisiifolia), and common lambsquarters (Chenopodium album) were sowed, and the test plants were grown for 16 days. Each of the test compounds listed below was formulated into an emulsifiable concentrate according to Formulation Example 2, which was diluted with water to a prescribed concentration. The dilution was uniformly sprayed over the foliage of the test plants with a sprayer at a volume of 1000 liters per hectare. At this time, the unfavorable weeds and crop plants, although their growth state was different depending upon the weed species, were at the 1- to 4-leaf stage, and the plant height was 5 to 20 cm. After 18 days from the application, the herbicidal activity and phytotoxicity were examined. This test was made in a greenhouse over the entire period.
# [10] = tested on: common lambsquarters (Chenopodium album); experiment: Test Example 5: foliar treatment on upland fields; settings: 63 g/ha active ingredient; foliar spray; 18 days after application
# Source text: as §2, §5
# [11] = tested on: common ragweed (Ambrosia artemisiifolia); experiment: Test Example 5: foliar treatment on upland fields; settings: 63 g/ha active ingredient; foliar spray; 18 days after application
# Source text: as §2, §5
# [12] = tested on: entireleaf morningglory (Ipomoea hederacea var. integriuscula); experiment: Test Example 5: foliar treatment on upland fields; settings: 63 g/ha active ingredient; foliar spray; 18 days after application
# Source text: as §2, §5
# [13] = tested on: catchweed bedstraw (Galium aparine); experiment: Test Example 6: foliar treatment on upland fields; settings: 63 g/ha active ingredient; foliar spray; 25 days after application
# Source text: as §2
# (§6) Plastic pots of 16×11 cm^2 in are and 7 cm in depth were filled with soil, in which the seeds of wheat (Triticum aestivum), pale smartweed (Polygonum lapathifolium), catchweed bedstraw (Galium aparine), and common chickweed (Stellaria media) were sowed, and the test plants were grown for 29 days. Each of the test compounds listed below was formulated into an emulsifiable concentrate according to Formulation Example 2, which was diluted with water to a prescribed concentration. The dilution was uniformly sprayed over the foliage of the test plants with a sprayer at a volume of 1000 liters per hectare. At this time, the unfavorable weeds and crop plants, although their growth state was different depending upon the weed species, were at the 1- to 4-leaf stage, and the plant height was 5 to 15 cm. After 25 days from the application, the herbicidal activity and phytotoxicity were examined. This test was made in a greenhouse over the entire period.
# [14] = tested on: common chickweed (Stellaria media); experiment: Test Example 6: foliar treatment on upland fields; settings: 63 g/ha active ingredient; foliar spray; 25 days after application
# Source text: as §2, §6
# [15] = tested on: pale smartweed (Polygonum lapathifolium); experiment: Test Example 6: foliar treatment on upland fields; settings: 63 g/ha active ingredient; foliar spray; 25 days after application
# Source text: as §2, §6
# [16] = tested on: corn (Zea mays); experiment: Test Example 5: foliar treatment on upland fields (phytotoxicity); settings: 63 g/ha active ingredient; foliar spray; 18 days after application
# Source text: as §2, §5
# [17] = tested on: soybean (Glycine max); experiment: as above; settings: 63 g/ha active ingredient; foliar spray; 18 days after application
# Source text: as §2, §5
Molecule,Herbicidal activity Entireleaf morningglory [1],Herbicidal activity Velvetleaf [2],Herbicidal activity Barnyardgrass [3],Herbicidal activity Entireleaf morningglory [4],Herbicidal activity Velvetleaf [5],Herbicidal activity Entireleaf morningglory [6],Herbicidal activity Velvetleaf [7],Herbicidal activity Barnyardgrass [8],Herbicidal activity and phytotoxicity Common cocklebur [9],Herbicidal activity and phytotoxicity Common lambsquarters [10],Herbicidal activity and phytotoxicity Common ragweed [11],Herbicidal activity and phytotoxicity Entireleaf morningglory [12],Herbicidal activity and phytotoxicity Catchweed bedstraw [13],Herbicidal activity and phytotoxicity Common chickweed [14],Herbicidal activity and phytotoxicity Pale smartweed [15],Herbicidal activity and phytotoxicity Corn [16],Herbicidal activity and phytotoxicity Soybean [17]
"CCOC(=O)COc1cc(-n2ncc(C(F)(F)F)c(C)c2=O)c(F)cc1Cl [Compound 1-496, Ethyl 2-chloro-4-fluoro-5-(4-methyl-5-trifluoromethyl-3-pyridazinon-2-yl)phenoxyacetate]",5,5,5,5,5,5,5,5,5,5,5,5,5,4,4,–,–
Pentyl 2-chloro-4-fluoro-5-(4-methyl-5-trifluoromethyl-3-pyridazinon-2-yl) phenoxyacetate [Compound 1-499],5,5,5,5,5,5,5,5,5,4,5,5,–,–,–,1,1
